Source: patent publication US20110039824A1, “1,2,3,6-tetrahydroazepino[4,5-b]indole-5-carboxylate nuclear receptor inhibitors” (Wyeth, priority 2008, published 2011)
Counter-ions that a name gives are not always drawn.

Biological target: T1, Gal4/hFXR fusion protein (Homo sapiens, UniProt Q96RI1)
T1 sequence (Q96RI1 262-486 limits assumed): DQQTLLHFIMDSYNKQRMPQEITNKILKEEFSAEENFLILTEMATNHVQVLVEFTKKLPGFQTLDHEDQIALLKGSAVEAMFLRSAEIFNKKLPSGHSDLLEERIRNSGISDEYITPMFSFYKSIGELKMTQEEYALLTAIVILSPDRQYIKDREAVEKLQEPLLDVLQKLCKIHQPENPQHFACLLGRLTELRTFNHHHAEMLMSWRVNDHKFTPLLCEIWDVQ
Experiment: Gal4/hFXR fusion protein agonist activity in human 293 cells (luciferase)
Assay type: cell-based
Design: Potency Range; other: Gal4/FXR agonist potency in 293 cells
Details: Gal4/FXR agonist potency in 293 cells; table does not say whether hFXR or mFXR; read-out: Potency Range
Method: • Assay Medium: Phenol red free high glucose Dulbecco's modified Eagle's medium with sodium pyruvate (Cellgro, #17-205-CV) supplemented with 10% fetal bovine serum (Gibco, 16000-044), 1% glutamax (Gibco, 35050-061), 100 units/mL penicillin and 100 μg/mL streptomycin (Gibco, 15140-122). • Culturplate-96 (PerkinElmer, 6005688) • Lysis buffer (Promega, E3971) • Luciferase assay reagent (Promega E1483)
• 1. Compounds to be tested were prepared as 2× stocks in assay medium. • 2. […] The supernatant was removed and the cells were resuspended in 1 ml assay medium. The cells were counted and diluted in assay medium to 200,000 cells per ml. The cells were then plated at 10,000 cells per well in Culturplate-96 plates in 50 uL assay medium. The cells were incubated at 37° C. for approximately 1 hour. • 3. […] All assays included 1 uM GW4064 (Maloney et al., J. Med. Chem., 2000, 43(16), 2971-2974) as a reference standard. • 4. Cells were incubated for 24 hours at 37° C.
• 5. The medium was removed, and the cells were lysed in 25 uL lysis buffer (Promega, E3971). • 6. The plates were analyzed for luciferase activity with luciferase assay reagent (Promega E1483). Plates were read on Victor^3V instrument using the protocol “Shuguang Luciferase assay” (dispense volume=100 uL, plate type=“Packard Viewplate”, measurement height=8 mm from bottom of plate, 5 second read per well).
• 1. For agonist single point screening, data were analyzed in Excel. Each compound was tested in triplicate. • 2. For agonist potency determinations, statistical analysis of the data was performed using a customized Excel/SAS program. Dose response curves were generated using a four parameter (min, max, slope, and EC50 where EC50 is defined as the concentration which corresponds to midway between the estimated max and min) logistic model using log-transformed data (data was transformed on both sides with known lambda=0). • 3.

Structure (SMILES)	EC50
CC(C)OC(=O)C1=CN(C(=O)c2cccc(CNC3CCNCC3)c2)CC(C)(C)c2c1[nH]c1ccccc21 [Example 22, Isopropyl 1,1-dimethyl-3-{3-[(piperidin-4-ylamino)methyl]benzoyl}-1,2,3,6-tetrahydroazepino[4,5-b]indole-5-carboxylate dihydrochloride]	1000 to 10000 nM
CC(C)OC(=O)C1=CN(C(=O)c2cccc(CN3C[C@H](C)C[C@H](C)C3)c2)CC(C)(C)c2c1[nH]c1ccccc21 [Example 14, Isopropyl 3-(3-{[(R3R,5S)-3,5-dimethylpiperidin-1-yl]methyl}benzoyl)-1,1-dimethyl-1,2,3,6-tetrahydroazepino[4,5-b]indole-5-carboxylate]	1000 to 10000 nM
CC(C)OC(=O)C1=CN(C(=O)c2cccc(CN3C[C@@H](C)O[C@H](C)C3)c2)CC(C)(C)c2c1[nH]c1ccccc21 [Example 5, Isopropyl 3-(3-{[(2R,6R)-2,6-dimethylmorpholin-4-yl]methyl}benzoyl)-1,1-dimethyl-1,2,3,6-tetrahydroazepino[4,5-b]indole-5-carboxylate]	100 to 500 nM
CC(C)OC(=O)C1=CN(C(=O)c2cccc(CN3CCC(O)CC3)c2)CC(C)(C)c2c1[nH]c1ccccc21 [Example 19, Isopropyl 3-{3-[(4-hydroxypiperidin-1-yl)methyl]benzoyl}-1,1-dimethyl-1,2,3,6-tetrahydroazepino[4,5-b]indole-5-carboxylate]	500 to 1000 nM
CC(C)OC(=O)C1=CN(C(=O)c2cccc(CN3CCSC3)c2)CC(C)(C)c2c1[nH]c1ccccc21 [Example 10, Isopropyl 1,1-dimethyl-3-[3-(1,3-thiazolidin-3-ylmethyl)benzoyl]-1,2,3,6-tetrahydroazepino[4,5-b]indole-5-carboxylate]	100 to 500 nM
CC(C)OC(=O)C1=CN(C(=O)c2cccc(CN3CCC(N4CCCCC4)CC3)c2)CC(C)(C)c2c1[nH]c1ccccc21 [Example 11, Isopropyl 3-[3-(1,4′-bipiperidin-1′-ylmethyl)benzoyl]-1,1-dimethyl-1,2,3,6-tetrahydroazepino[4,5-b]indole-5-carboxylate]	1000 to 10000 nM
CC(C)OC(=O)C1=CN(C(=O)c2cccc(CN3C[C@@H](C)C[C@H](C)C3)c2)CC(C)(C)c2c1[nH]c1ccccc21 [Example 13, Isopropyl 3-(3-{[(3S,5S)-3,5-dimethylpiperidin-1-yl]methyl}benzoyl)-1,1-dimethyl-1,2,3,6-tetrahydroazepino[4,5-b]indole-5-carboxylate]	100 to 500 nM
CC(C)OC(=O)C1=CN(C(=O)c2cccc(CN3CCC(N4CCOCC4)CC3)c2)CC(C)(C)c2c1[nH]c1ccccc21 [Example 9, Isopropyl 1,1-dimethyl-3-{3-[(4-morpholin-4-ylpiperidin-1-yl)methyl]benzoyl}-1,2,3,6-tetrahydroazepino[4,5-b]indole-5-carboxylate]	1000 to 10000 nM
CC(C)OC(=O)C1=CN(C(=O)c2cccc(CN3[C@@H](C)CC[C@@H]3C)c2)CC(C)(C)c2c1[nH]c1ccccc21 [Example 16, Isopropyl 3-(3-{[(2S,5S)-2,5-dimethylpyrrolidin-1-yl]methyl}benzoyl)-1,1-dimethyl-1,2,3,6-tetrahydroazepino[4,5-b]indole-5-carboxylate]	1000 to 10000 nM
CC(C)OC(=O)C1=CN(C(=O)c2cccc(CN(C)C3CCCCC3)c2)CC(C)(C)c2c1[nH]c1ccccc21 [Example 18, Isopropyl 3-(3-{[cyclohexyl(methyl)amino]methyl}benzoyl)-1,1-dimethyl-1,2,3,6-tetrahydroazepino[4,5-b]indole-5-carboxylate]	500 to 1000 nM
CC(C)OC(=O)C1=CN(C(=O)c2cccc(CN3C[C@@H](C)N[C@@H](C)C3)c2)CC(C)(C)c2c1[nH]c1ccccc21 [Example 7, Isopropyl 3-(3-{[(3R,5S)-3,5-dimethylpiperazin-1-yl]methyl}benzoyl)-1,1-dimethyl-1,2,3,6-tetrahydroazepino[4,5-b]indole-5-carboxylate]	500 to 1000 nM
CC(C)OC(=O)C1=CN(C(=O)c2cccc(CN3CCSCC3)c2)CC(C)(C)c2c1[nH]c1ccccc21 [Example 15, Isopropyl 1,1-dimethyl-3-[3-(thiomorpholin-4-ylmethyl)benzoyl]-1,2,3,6-tetrahydroazepino[4,5-b]indole-5-carboxylate]	100 to 500 nM
CC(C)OC(=O)C1=CN(C(=O)c2cccc(CN3CCC(C(N)=O)CC3)c2)CC(C)(C)c2c1[nH]c1ccccc21 [Example 8, Isopropyl 3-{3-[(4-carbamoylpiperidin-1-yl)methyl]benzoyl}-1,1-dimethyl-1,2,3,6-tetrahydroazepino[4,5-b]indole-5-carboxylate]	500 to 1000 nM
CC(C)OC(=O)C1=CN(C(=O)c2cccc(CN3CCC(N4CCCC4)CC3)c2)CC(C)(C)c2c1[nH]c1ccccc21 [Example 12, Isopropyl 1,1-dimethyl-3-{3-[(4-pyrrolidin-1-ylpiperidin-1-yl)methyl]benzoyl}-1,2,3,6-tetrahydroazepino[4,5-b]indole-5-carboxylate]	1000 to 10000 nM
CC(C)OC(=O)C1=CN(C(=O)c2cccc(CN3C[C@@H](C)O[C@@H](C)C3)c2)CC(C)(C)c2c1[nH]c1ccccc21 [Example 6, Isopropyl 3-(3-{[(2R,6S)-2,6-dimethylmorpholin-4-yl]methyl}benzoyl)-1,1-dimethyl-1,2,3,6-tetrahydroazepino[4,5-b]indole-5-carboxylate]	500 to 1000 nM
CC(C)OC(=O)C1=CN(C(=O)c2cccc(CN3CCS(=O)(=O)CC3)c2)CC(C)(C)c2c1[nH]c1ccccc21 [Example 21, Isopropyl 3-{3-[(1,1-dioxidothiomorpholin-4-yl)methyl]benzoyl}-1,1-dimethyl-1,2,3,6-tetrahydroazepino[4,5-b]indole-5-carboxylate]	500 to 1000 nM
CC(C)OC(=O)C1=CN(C(=O)c2cccc(CN3CCCC(C(N)=O)C3)c2)CC(C)(C)c2c1[nH]c1ccccc21 (stereo not drawn) [Example 20, isopropyl 3-{3-[(3-carbamoylpiperidin-1-yl)methyl]benzoyl}-1,1-dimethyl-1,2,3,6-tetrahydroazepino[4,5-b]indole-5-carboxylate]	500 to 1000 nM
CC(C)OC(=O)C1=CN(C(=O)c2cccc(CNC3CCCCC3)c2)CC(C)(C)c2c1[nH]c1ccccc21 [Example 17, Isopropyl 3-{3-[(cyclohexylamino)methyl]benzoyl}-1,1-dimethyl-1,2,3,6-tetrahydroazepino[4,5-b]indole-5-carboxylate]	500 to 1000 nM
